The text below walks through data of US20060068503A1, “Solid support membranes for ion channel arrays and sensors: application ro rapid screening of pharmacological compounds” (priority 2004, published 2006).

Assay [1] addresses T1, Kv1.5 K+ channels reconstituted on the SSM (Homo sapiens, UniProt P22460).
T1 construct: expressed in transfected cells; host or cells: Ltk- cells (mouse fibroblasts), stably transfected, expression induced with 2 uM dexamethasone
The assay can be described thus: Kv1.5 K+ channel current on solid supported membrane (SSM). The format is biochemical. The note with it: for IC50: SSM-reconstituted channels, -80 mV, n=3, read-out: half-maximal inhibition of Kv1.5 K+ channel current, IC50. The procedure: An Ltk-cell line (mouse fibroblast cells) stably overexpressing Kv1.5 K+ channels under control of a dexamethasone promoter is used to prepare plasma membrane vesicles. Expression of Kv1.5 is induced in Ltk-cells by addition of dexamethasone to the medium. The dexamethasone-specific induction of channel expression is totally specific for Kv1.5 channels. Cells are grown in 2 μM dexamethasone for 24 hr prior to use. The cells are centrifuged for 5 min at 1000 rpm and resuspended in 1.0 ml of 20 mM HEPES (pH 7.5), 20 mM NaCl, 100 mM KCl, 1.0 mM EDTA, 0.02% NaN3, 1 mM PMSF, 10 μg/μl leupeptin, and 50 μg/μl aprotinin. After freeze-thawing twice, the membrane fragments/vesicles are collected following centrifugation at 12,000 g for 20 min at 4 °C. Membrane vesicles are also prepared from uninduced Ltk-cells (no dexamethasone incubation) transfected with Kv1.5 K+ channel cDNA and from non-transfected Lkt-cells.
Glass slides are first plated with chromium (5 nm), and then gold (150 nm). The slide is then immersed in ethanol containing 1% octadecanethiol (w/w) for 48 hr to attach alkyl thiol groups. After cleaning the gold plated slide with anhydrous isopropanol, epoxy resin is applied to the surface of the thiol-treated gold. Defects in the epoxy resin coating are used as the experimental chamber after coating the device with a lipid monolayer. […]
Membrane vesicles containing Kv1.5 K+ channels are added to the lipid coated wells containing 125 mM KCl/10 mM K-HEPES pH 7.4. Currents are measured with an HS-2A headstage and Gene Clamp 500 amplifier (Axon Instruments). […] Voltages ranging from −80 mV to +70 mV are applied in 10 mV increments for 200 msec, and electrical currents are recorded. […] Cation selectivity is measured by removing K+ from the medium and replacing it with Na+. Currents are first measured with K+ present. SSMs are then washed with K+-free, Na+-containing medium and currents were measured with Na+ present. Currents with K+ present are re-measured. […]

Assay [2] concerns the target T2, Kv1.5 K+ channel (Homo sapiens, UniProt P22460).
T2 construct: expressed in transfected cells; host or cells: Ltk- cells (mouse fibroblasts), stably transfected, expression induced with 2 uM dexamethasone
The assay can be described thus: Whole cell patch clamp of dexamethasone-induced Kv1.5-transfected Ltk-cells. Conditions: Ltk-cells overexpressing Kv1.5, whole cell patch clamp. The format is cell-based. The procedure: Whole-cell Kv1.5 current recordings are made at room temperature via the gigaseal patch clamp technique using an Axopatch-1D amplifier (Axon Instruments, Foster City, Calif.). Ltk-cells overexpressing Kv1.5 channels are cultured for 24-72 hr, induced to express Kv1.5 channels by 24 hr incubation with 2 μM dexamethasone prior to use for patch clamp studies. Small, spherical cells approximately 10 microns in diameter are used for all patch recordings. Electrodes are made from TW-150F glass capillary tubes (World Precision Instruments, New Haven Conn.) and had resistances of 1.5-3.0 megohms when filled with internal solution containing: 110 Mm KCl, 5 mM K2ATP, 5 mM K4BAPTA, 1 mM MgCl2 and 10 mM HEPES, adjusted to pH 7.2 with KOH. The external solution contained: 130 mM NaCl, 4 mM KCl, 1.8 mM CaCl2 1 mM MgCl2, 10 mM HEPES, 10 mM glucose, adjusted to pH 7.4 with NaOH. Series resistance is compensated following rupture of the seal. Currents are sampled at 1 KHZ and filtered at 500 Hz. Cells are pulsed to +60 mV every 5 sec from a holding potential of −70 mV in 20 mV increments. […] Whole cell patch data are analyzed using Clampfit 8.0 in pCLAMP software (Axon Instruments). IC50 values for compounds are determined by nonlinear regression analysis using GraphPad Prism software (San Diego, Calif.).

T1 sequence (P22460 whole entry): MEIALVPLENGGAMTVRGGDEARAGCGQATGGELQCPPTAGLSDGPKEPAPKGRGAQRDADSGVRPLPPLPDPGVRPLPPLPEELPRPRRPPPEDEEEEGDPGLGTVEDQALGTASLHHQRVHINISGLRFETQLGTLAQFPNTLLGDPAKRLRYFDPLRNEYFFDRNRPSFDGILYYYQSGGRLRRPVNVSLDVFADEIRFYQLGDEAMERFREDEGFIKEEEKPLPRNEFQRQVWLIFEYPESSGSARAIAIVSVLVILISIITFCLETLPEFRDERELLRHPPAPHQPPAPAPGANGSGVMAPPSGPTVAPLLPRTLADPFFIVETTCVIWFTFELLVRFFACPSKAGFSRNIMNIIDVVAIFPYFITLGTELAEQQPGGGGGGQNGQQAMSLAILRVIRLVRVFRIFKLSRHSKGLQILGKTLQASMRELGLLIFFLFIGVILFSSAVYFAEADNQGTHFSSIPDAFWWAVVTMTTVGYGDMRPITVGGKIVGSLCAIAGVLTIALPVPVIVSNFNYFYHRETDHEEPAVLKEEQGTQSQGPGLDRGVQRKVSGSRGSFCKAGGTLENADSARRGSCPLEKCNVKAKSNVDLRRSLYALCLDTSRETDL
T2 sequence (P22460 whole entry): as above

On to `CCc1ccc(S(=O)(=O)N[C@H]2c3cc(NC(=O)c4cccc(OC)c4)ccc3C[C@@H]2O)cc1` [Compound A, N-[(2S,3S)-3-[[(4-ethylphenyl)sulfonyl]amino]-2,3-dihydro-2-hydroxy-1H-inden-5yl]-3-methoxybenzamide], for which the “effect on current at varying holding potentials” value in assay [1] (100 nM, holding potentials outside the range of ±20 mV) is “current decreased”. Further, the IC50 (usually the midpoint of a concentration-inhibition curve) in assay [1] was 218 nM; in assay [2], 170 nM.
Consider `COc1ccc(CCN2C(=O)CSC2c2ccc(C)c(C)c2)cc1` (centres unmarked) [Compound B, 2-(3,4-dimethyphenyl)-3-[2-(4-methoxyphenyl)ethyl]-thiazolidin-4-one], for which the IC50 in assay [1] was 265 nM; in assay [2], 137 nM.
